Molecules are shown by their SMILES. Where a name gives a salt, the structure may show the parent alone.

This test has as its target T1, GPR119 G protein-coupled receptor (Homo sapiens, UniProt Q8TDV5).
T1 construct: expressed in transfected cells; host or cells: Flp-In-T-REx 293 cells, tetracycline induced
T1 sequence (Q8TDV5 1-335): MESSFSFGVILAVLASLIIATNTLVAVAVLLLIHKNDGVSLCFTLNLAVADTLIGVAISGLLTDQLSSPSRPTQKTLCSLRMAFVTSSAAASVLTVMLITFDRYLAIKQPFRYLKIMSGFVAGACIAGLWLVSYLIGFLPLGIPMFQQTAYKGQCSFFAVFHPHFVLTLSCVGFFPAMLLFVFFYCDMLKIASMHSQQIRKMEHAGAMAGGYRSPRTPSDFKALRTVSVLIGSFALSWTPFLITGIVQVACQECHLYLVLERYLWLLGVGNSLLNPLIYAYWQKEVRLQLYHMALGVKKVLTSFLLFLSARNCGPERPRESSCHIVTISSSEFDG
Kind of test: Human Tet-Inducible cAMP Assay (hEC50, Table 1). Further details: IA: scale not given here. The following applies: for IA: IA not defined. The class given is cell-based. How it is done:
Human Tet-Inducible cAMP Assay
Cell lines using the Flp-In-T-REx 293 tetracycline inducible gene expression system are cultured in culture medium comprising the following components: DMEM#11965, 10% FBS, 2 mM L-glutamine, 200 ug/ml Hygromycin B, and 15 ug/ml blasticidin.
For cAMP assays, cells are plated on 96 well plates (e.g., BD Falcon: REF 353948, black side, clear bottom, TC surface) at a density of about 4.5×10^4 cells per well in growth medium containing 1.0 ug/ml tetracycline (1.0 mg/ml stock). The cells are then incubated for 48 hours at 37° C.
Following the incubation, the growth medium is removed from the wells and the wells rinsed (once) with the assay buffer included in the Hit Hunter cAMP kit (100 μl/well). Following the wash, 20 μl of assay buffer is added to each well, followed by addition of 10 μl of a 3× concentration compound working solution. The solution is then mixed. The final concentration range of compound is from about 10^−5M to about 10^−11M. The reagents are then incubated at 37° C. at 5% CO2 for 1 hour.
The manufacturer's protocol may be followed for cAMP determination. The Hit Hunter cAMP kit protocol is outlined for the HIT-T15 cAMP assays described above.

In the case of `CCC(C)OC(=O)N1CCC(N2CCOc3c(Nc4ccc(S(C)(=O)=O)cc4F)ncnc32)CC1` (racemic) [Example 146, (±)-sec-Butyl 4-(4-(2-fluoro-4-(methylsulfonyl)phenylamino)-6H-pyrimido[5,4-b][1,4]oxazin-8(7 H)-yl)piperidine-1-carboxylate, TFA salt], the EC50 stood at 0.00852 µM and the IA was found to be 0.88.

Turning to `CC(C)(C)OC(=O)N1CCC(N2CCOc3c(Nc4ccc(S(C)(=O)=O)cc4Cl)ncnc32)CC1` [Example 7, tert-Butyl 4-(4-(2-chloro-4-(methylsulfonyl)phenylamino)-6H-pyrimido[5,4-b][1,4]oxazin-8(7H)-yl)piperidine-1-carboxylate], the concentration giving a half-maximal response (EC50) was found to be 0.00278 µM and the IA amounted to 0.81.

In turn, `COc1ccc(Nc2ncnc3c2OCCN3C2CCN(C(=O)OC(C)C)CC2)c(F)c1` [Example 15, iso-Propyl 4-(4-(2-fluoro-4-methoxyphenylamino)-6H-pyrimido[5,4-b][1,4]oxazin-8(7H)-yl)piperidine-1-carboxylate] registered a concentration for a half-maximal effect (EC50) of 0.188 µM and an IA of 0.48.

As for `CS(=O)(=O)c1ccc(Nc2ncnc3c2OCCN3C2CCN(c3nc4ccccc4s3)CC2)c(F)c1` [Example 18, 8-(1-(Benzo[d]thiazol-2-yl)piperidin-4-yl)-N-(2-fluoro-4-(methylsulfonyl)phenyl)-7,8-dihydro-6H-pyrimido[5,4-b][1,4]oxazin-4-amine], the concentration for a half-maximal effect (EC50) was 0.198 µM and the IA worked out at 0.46.

`Cc1ncccc1Oc1ncnc2c1OCCN2C1CCN(C(=O)OC(C)C)CC1` [Example 25, iso-Propyl 4-(4-(2-methylpyridin-3-yloxy)-6H-pyrimido[5,4-b][1,4]oxazin-8(7H)-yl)piperidine-1-carboxylate] returned a concentration for a half-maximal effect (EC50) of 4.52 µM and an IA of 0.27.

On to `CC(C)(C)OC(=O)N1CCC(N2C(=O)COc3c(Nc4ccc(S(C)(=O)=O)cc4F)ncnc32)CC1` [Example 26, tert-Butyl 4-(4-(2-fluoro-4-(methylsulfonyl)phenylamino)-7-oxo-6H-pyrimido[5,4-b][1,4]oxazin-8(7H)-yl)piperidine-1-carboxylate], for which it took 0.00806 µM to reach a half-maximal effect (EC50) and the IA is reported as 0.51.

`COC(=O)c1ccc(Nc2ncnc3c2OCCN3C2CCN(C(=O)OC(C)(C)C)CC2)c(Cl)c1` [Example 45, tert-Butyl 4-(4-(2-chloro-4-(methoxycarbonyl)phenylamino)-6H-pyrimido[5,4-b][1,4]oxazin-8(7H)-yl)piperidine-1-carboxylate] gave an EC50 of 0.158 µM and an IA of 0.63.

Compound `CC(C)(C)OC(=O)N1CCC(N2CCOc3c(Nc4ccc(C(N)=O)cc4Cl)ncnc32)CC1` [Example 47, tert-Butyl 4-(4-(4-carbamoyl-2-chlorophenylamino)-6H-pyrimido[5,4-b][1,4]oxazin-8(7H)-yl)piperidine-1-carboxylate] displayed an EC50 of 0.163 µM and an IA of 0.78.

With `CC(C)OC(=O)N1CCC(N2CCOc3c(Nc4ccc(C(N)=O)cc4Cl)ncnc32)CC1` [Example 49, iso-Propyl 4-(4-(4-carbamoyl-2-chlorophenylamino)-6H-pyrimido[5,4-b][1,4]oxazin-8(7H)-yl)piperidine-1-carboxylate], the EC50 stood at 0.196 µM and the IA was determined as 0.67.

Compound `CC(C)(C)OC(=O)N1CCC(N2CCOc3c(Nc4c(Cl)cncc4Cl)ncnc32)CC1` [Example 55, tert-Butyl 4-(4-(3,5-dichloropyridin-4-ylamino)-6H-pyrimido[5,4-b][1,4]oxazin-8(7H)-yl)piperidine-1-carboxylate] gave an EC50 of 0.0111 µM and an IA of 0.72.

`Cc1ccc(Nc2ncnc3c2OCC(=O)N3C2CCN(C(=O)OC(C)(C)C)CC2)cn1` [Example 69, tert-Butyl 4-(4-(6-methylpyridin-3-ylamino)-7-oxo-6H-pyrimido[5,4-b][1,4]oxazin-8(7H)-yl)piperidine-1-carboxylate] had a half-maximal effective concentration (EC50) of 4.31 µM and an IA of 0.35.

With `Cc1ccc(Nc2ncnc3c2OCC(=O)N3C2CCN(C(=O)OC(C)C)CC2)cn1` [Example 72, iso-Propyl 4-(4-(6-methylpyridin-3-ylamino)-7-oxo-6H-pyrimido[5,4-b][1,4]oxazin-8(7H)-yl)piperidine-1-carboxylate], a half-maximal response (EC50) required 8.58 µM and the IA was determined as 0.34.

The compound `Cc1ncccc1Nc1cccc2c1OCCN2C1CCN(C(=O)OC(C)(C)C)CC1` [Example 76, tert-Butyl 4-(8-(2-methylpyridin-3-ylamino)-2H-benzo[b][1,4]oxazin-4 (3H)-yl)piperidine-1-carboxylate] showed an EC50 of 3.39 µM and an IA of 0.38.

`CC(C)(C)OC(=O)N1CCC(N2CCCOc3c(Nc4c(Cl)cncc4Cl)ncnc32)CC1` [Example 89, tert-Butyl 4-(4-(3,5-dichloropyridin-4-ylamino)-7,8-dihydropyrimido[5,4-b][1,4]oxazepin-9(6H)-yl)piperidine-1-carboxylate] registered an EC50 of 0.0103 µM and an IA of 0.65.

In the case of `CC(C)(C)OC(=O)N1CCC(N2CCCOc3c(Nc4ccncc4)ncnc32)CC1` [Example 100, tert-Butyl 4-(4-(pyridin-4-ylamino)-7,8-dihydropyrimido[5,4-b][1,4]oxazepin-9(6H)-yl)piperidine-1-carboxylate], the EC50 was determined as 3.45 µM and the IA was 0.53.

As to `CC(C)OC(=O)N1CCC(N2C(=O)CCc3c(Nc4ccc(S(C)(=O)=O)cc4F)ncnc32)CC1` [Example 118, Isopropyl 4-(4-(2-fluoro-4-(methylsulfonyl)phenylamino)-7-oxo-6,7-dihydropyrido[2,3-d]pyrimidin-8 (5H)-yl)piperidine-1-carboxylate], the midpoint of the response, the EC50, lay at 0.179 µM and the IA stood at 0.63.

With `CC(C)OC(=O)N1CCC(N2CCOc3c(Nc4ccncc4Cl)ncnc32)CC1` [Example 120, Isopropyl 4-(4-(3-chloropyridin-4-ylamino)-6H-pyrimido[5,4-b][1,4]oxazin-8(7H)-yl)piperidine-1-carboxylate], the EC50 came to 0.181 µM and the IA was 0.45.

For the compound `CC(C)OC(=O)N1CCC(N2C(=O)COc3c(Nc4cccnc4Cl)ncnc32)CC1` [Example 127, Isopropyl 4-(4-(2-chloropyridin-3-ylamino)-7-oxo-6H-pyrimido[5,4-b][1,4]oxazin-8(7H)-yl)piperidine-1-carboxylate], the EC50 stood at 6.18 µM and the IA worked out at 0.52.

`COc1ccc(Nc2ncnc3c2OCCN3C2CCN(C(=O)OC(C)C)CC2)cc1` [Example 128, Isopropyl 4-(4-(4-methoxyphenylamino)-6H-pyrimido[5,4-b][1,4]oxazin-8(7H)-yl)piperidine-1-carboxylate] yielded an EC50 of 3.59 µM and an IA of 0.7.

`CC(C)OC(=O)N1CCC(N2CCOc3c(Nc4ccc5c(c4)OCO5)ncnc32)CC1` [Example 132, Isopropyl 4-(4-(benzo[d][1,3]dioxol-5-ylamino)-6H-pyrimido[5,4-b][1,4]oxazin-8(7H)-yl)piperidine-1-carboxylate] came in with an EC50 of 3.4 µM and an IA of 0.37.

In the case of `Cc1cc(C#N)ccc1Nc1ncnc2c1OCCN2C1CCN(C(=O)OC(C)C)CC1` [Example 134, Isopropyl 4-(4-(4-cyano-2-methylphenylamino)-6H-pyrimido[5,4-b][1,4]oxazin-8(7H)-yl)piperidine-1-carboxylate], the response was half-maximal at 0.163 µM (EC50) and the IA was 0.59.

The compound `CC(C)(OC(=O)N1CCC(N2CCOc3c(Nc4ccc(S(C)(=O)=O)cc4F)ncnc32)CC1)C(F)(F)F` [Example 143] returned an EC50 of 0.00974 µM and an IA of 0.41.

As for `CS(=O)(=O)c1ccc(Nc2ncnc3c2OCCN3C2CCN(C(=O)OCC(F)(F)F)CC2)c(F)c1` [Example 145, 2,2,2-Trifluoroethyl 4-(4-(2-fluoro-4-(methylsulfonyl)phenylamino)-6H-pyrimido[5,4-b][1,4]oxazin-8(7H)-yl)piperidine-1-carboxylate, TFA salt], the concentration for a half-maximal effect (EC50) stood at 0.0114 µM and the IA came out at 0.87.

For `CC(C)(C)OC(=O)N1CCC(N2CCOc3c(Nc4ccc(-n5ccnc5)cc4Cl)ncnc32)CC1` [Example 154, tert-Butyl 4-(4-(2-chloro-4-(1H-imidazol-1-yl)phenylamino)-6H-pyrimido[5,4-b][1,4]oxazin-8(7H)-yl)piperidine-1-carboxylate], the EC50 was determined as 0.0129 µM and the IA is listed as 0.65.

As a reminder, the EC50 is the concentration at which the effect is half-maximal.

The values above are taken from patent US8513265B2, “[6,6] and [6,7]-bicyclic GPR119 G protein-coupled receptor agonists” (Bristol-Myers Squibb Company, priority 2011, dated 2013).
